The values that follow come from the NIST ThermoML archive (doi:10.1016/j.fluid.2005.11.015).

± gives the expanded uncertainty stated by the source.

For the data set the following is noted: Crystal; visual observation.

On to `CCCCn1cc[n+](C)c1.[Cl-]` [1-butyl-3-methylimidazolium chloride], for which the Normal melting temperature amounted to 67.0 ± 2 °C.
